“And” between values parts separate entries of the source, which are not always exact repeats. Equal entries are not always repeated. “Also recorded” adds a separate entry of the source. Where two headings read alike, the source gives them in different places.
How the values were obtained:
[1] = target: T1, hPPARß/δ LBD (Homo sapiens, UniProt Q03181); test: Qualitative thermal shift assay (TSA); assay type: binding; conditions: commercial agonists at 30 μM, 10 μM PPARß/δ, vs apo-PPARß/δ
T1 construct: cDNA (amino acids 171–441) inserted into pET28a vector; His-tag; made in house; host or cells: Escherichia coli BL21(DE3)
T1 sequence (Q03181 171-441): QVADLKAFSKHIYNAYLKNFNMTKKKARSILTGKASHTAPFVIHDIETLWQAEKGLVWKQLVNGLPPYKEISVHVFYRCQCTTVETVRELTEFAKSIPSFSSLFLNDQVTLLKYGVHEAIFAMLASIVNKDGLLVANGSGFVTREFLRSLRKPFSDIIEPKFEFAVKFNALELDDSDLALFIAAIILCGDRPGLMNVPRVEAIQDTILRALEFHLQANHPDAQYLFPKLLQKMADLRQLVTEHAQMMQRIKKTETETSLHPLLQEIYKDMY

[2] = target: T1, hPPARß/δ LBD; test: ANS fluorescence quenching; assay type: binding; conditions: 2 μM hPPARß/δ LBD, 20 μM ANS; for ANS fluorescence quenching / ANS probe displacement (qualitative): compounds 0.3–50 μM, extracts 0.005–1 mg/mL
[3] = target: T2, PPARß/δ (Homo sapiens, UniProt Q03181); test: PPARß/δ transactivation assay (Gal4-DBD/PPARß/δ-LBD dual luciferase reporter-gene assay in 293T cells); assay type: cell-based; conditions: dose-response curves 10^−11–10^−6 M
T2 construct: expressed in transfected cells; host or cells: 293T cells (ATCC CRL-3216), transient transfection
T2 sequence (Q03181 211-439 limits assumed): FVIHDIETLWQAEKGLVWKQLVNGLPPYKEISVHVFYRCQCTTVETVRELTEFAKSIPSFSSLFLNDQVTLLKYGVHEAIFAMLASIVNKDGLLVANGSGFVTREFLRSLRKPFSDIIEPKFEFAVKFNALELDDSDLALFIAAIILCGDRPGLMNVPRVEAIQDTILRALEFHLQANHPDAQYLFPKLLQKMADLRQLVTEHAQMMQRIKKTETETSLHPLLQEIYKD

[4] = tested on: PPARß/δ; conditions: read-out: EC50 found in the literature, cited from earlier work
[5] = tested on: 293T cells; test: Cytotoxicity: MTT assay and Renilla reporter expression; assay type: cell-based; conditions: 1 μM, 1% DMSO as vehicle, compared with 0.1% or 1% DMSO
Procedure: We performed vector normalization with the raw luminescence data to control for differences in transfection efficiency between samples. For vector normalization we calculate luciferase signal/Renilla signal. The assay performance was assessed by plate statistics (signal-to-background ratio, Z′-factor, coefficient of variation) and apparent cytotoxicity was a measure of Renilla luciferase parameters. For Z′-factor calculation, we consider, after vector normalization, the positive controls (GW0742) as signal, and negative controls (DMSO) as background. For cytotoxicity, wells with expression of Renilla reporter five standard deviations (5 × SD) below the mean value of the controls treatment were considered cytotoxic and consequently were disregarded. We considered as hit candidates compounds/extracts with luminescence firefly/Renilla ratio 7 times above the standard deviation of negative controls (DMSO) from the same plate. […]
Additionally, we related the 3-(4,5-dimethyl-2-thia-zoyl)-2,5-diphenyl-2H-tetrazolium bromide (MTT) results with Renilla reporter expression to assess when a test compound/extract might be toxic to the cells, only based on Renilla reporter expression. […] The absorbance was measured at 562 nm using an EnSpire® Multimode Plate Reader (Perkin Elmer). […] Data were analyzed by 2-way ANOVA followed by Sidak's multiple comparison test in GraphPad Prism software. […]

Which Tm variation [1] does the source give for `CC(C)(Oc1ccc(CCNC(=O)c2ccc(Cl)cc2)cc1)C(=O)O` [Bezafibrate] here?
The Tm variation was 2.9 ± 0.1 °C and 2.9 °C.

And the “ANS fluorescence quenching / ANS probe displacement (qualitative)” value [2]?
The value was “did not dislocate the ANS probe; also recorded: did not show a fluorescence quenching”.

What does the source list for `CCCc1c(OCCCOc2ccc(OCC(=O)O)cc2)ccc(C(C)=O)c1O` [L-165,041]?
EC50 [3]: 26.4 nM; Tm variation [1]: 7.3 ± 0.7 °C and 7.3 °C; ANS fluorescence quenching / ANS probe displacement (qualitative) [2]: showed quenching in the ANS fluorescence; Kd ([2]; read-out: apparent dissociation constant (Kdapp)): 1090 ± 80 nM; EC50 ([4]; ref [25]): 125 nM

Which “cytotoxicity (MTT / Renilla reporter expression)” value [5] does the source give for `Cc1cc(SCc2sc(-c3ccc(C(F)(F)F)c(F)c3)nc2C)ccc1OCC(=O)O` [GW0742] here?
Its value is “no cytotoxicity”.

For `Cc1cc(SCc2sc(-c3ccc(C(F)(F)F)cc3)nc2C)ccc1OCC(=O)O` [GW501516], which EC50 ([4]; ref [7]) is on record?
The EC50 was 1.8 nM.
